Among the data in the supplement of paper PMC8960247 are relative viability values, retold here.

Structures can show the parent of a compound that is named as a salt. ± gives the standard error.

Assay [1] deals with 621-102 (TSC2-deficient). As to the kind of experiment: relative viability vs DMSO; higher = less cytotoxic. Particulars: serum: 10% FBS, 72 h.
Assay [2] deals with 621-103 (TSC2-rescued). Described as above. Particulars: serum: 10% FBS, 72 h.
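Further: immortalized renal angiomyolipoma cells stably carrying empty vector or TSC2, dosed in 384-well plates in DMEM, viability normalized to vehicle-treated wells within each plate.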

As to `Cc1nnc(C(=O)NC(C)(C)c2nc(C(=O)NCc3ccc(F)cc3)c(O)c(=O)n2C)o1` [Raltegravir], the relative viability in assay [1] (0.0001 µM) was determined as 106 ± 3.9%; in assay [1] (0.001 µM), 106 ± 3.1%; in assay [1] (0.01 µM) it was 108 ± 4.3%; in assay [1] (0.1 µM), 101.8 ± 0.33%; in assay [1] (1 µM) it was 110 ± 3.2%; in assay [1] (10 µM), 106 ± 3.2%. The relative viability in assay [2] (0.0001 µM) was 99.5 ± 3%; in assay [2] (0.001 µM), 101 ± 1.5%; in assay [2] (0.01 µM), 100 ± 1.3%; in assay [2] (0.1 µM), 98.8 ± 1.3%; in assay [2] (1 µM), 101 ± 1.4%; in assay [2] (10 µM), 105 ± 2.1%.

As for `O=C1[C@H](Cc2ccc(O)cc2)N2C(=O)CCN(C(=O)NCc3ccccc3)[C@H]2CN1Cc1cccc2ccccc12` [ICG-001], the relative viability in assay [1] (0.0001 µM) is 116 ± 2.7%; in assay [1] (0.001 µM), 105.3 ± 0.41%; in assay [1] (0.01 µM) it was 106 ± 1.1%; in assay [1] (0.1 µM) it was 102 ± 4.2%; in assay [1] (1 µM), 98.9 ± 2.3%; in assay [1] (10 µM) it was 52.9 ± 0.89%. Also, the relative viability in assay [2] (0.0001 µM) was found to be 105 ± 2.9%; in assay [2] (0.001 µM) it was 109 ± 7.1%; in assay [2] (0.01 µM), 108.7 ± 0.74%; in assay [2] (0.1 µM) it was 103 ± 1.3%; in assay [2] (1 µM) it was 109 ± 1.5%; in assay [2] (10 µM), 37.8 ± 0.69%.

For `Nc1nc(N)c2nc(-c3cccc(O)c3)c(-c3cccc(O)c3)nc2n1` [TG100-115], the relative viability in assay [1] (0.0001 µM) is 98.9 ± 7.9%; in assay [1] (0.001 µM), 105 ± 4.8%; in assay [1] (0.01 µM), 110.59 ± 0.023%; in assay [1] (0.1 µM), 112 ± 1.9%; in assay [1] (1 µM), 111 ± 5.8%; in assay [1] (10 µM), 95.6 ± 3.2%. Moreover, the relative viability is 99.62 ± 0.33% in assay [2] (0.0001 µM); 99.8 ± 1.2% in assay [2] (0.001 µM); 106 ± 4.6% in assay [2] (0.01 µM); 99.3 ± 0.84% in assay [2] (0.1 µM); 99.5 ± 1.8% in assay [2] (1 µM); 100.3 ± 1% in assay [2] (10 µM).

`COc1cc(N2CCC(N3CCN(C)CC3)CC2)ccc1Nc1ncc(Cl)c(Nc2ccccc2S(=O)(=O)C(C)C)n1` [NVP-TAE684]: the relative viability in assay [1] (0.0001 µM) was 105.9 ± 0.18%; in assay [1] (0.001 µM), 105 ± 2.5%; in assay [1] (0.01 µM) it was 100.1 ± 0.29%; in assay [1] (0.1 µM) it was 97.9 ± 2.6%; in assay [1] (1 µM), 80.8 ± 1.4%; in assay [1] (10 µM), 3.88 ± 1.5%. Besides, the relative viability came out at 98.4 ± 2.6% in assay [2] (0.0001 µM); 99.6 ± 1.4% in assay [2] (0.001 µM); 99.8 ± 2% in assay [2] (0.01 µM); 99.27 ± 0.36% in assay [2] (0.1 µM); 75.2 ± 3.5% in assay [2] (1 µM); 1.56 ± 0.21% in assay [2] (10 µM).

`CCCCC1=NC2(CCCC2)C(=O)N1Cc1ccc(-c2ccccc2-c2nnn[nH]2)cc1` [Irbesartan (Avapro)]: the relative viability in assay [1] (0.0001 µM) worked out at 103.3 ± 0.78%; in assay [1] (0.001 µM), 100.8 ± 0.93%; in assay [1] (0.01 µM), 105 ± 3.8%; in assay [1] (0.1 µM) it was 101 ± 4.9%; in assay [1] (1 µM), 110 ± 1.1%; in assay [1] (10 µM), 104 ± 2.6%. The relative viability in assay [2] (0.0001 µM) came to 102 ± 1.3%; in assay [2] (0.001 µM), 96.3 ± 4.2%; in assay [2] (0.01 µM), 95.6 ± 3.6%; in assay [2] (0.1 µM) it was 102 ± 1.9%; in assay [2] (1 µM), 103 ± 4%; in assay [2] (10 µM), 107.2 ± 0.91%.

Consider `O=c1cc(-c2ccc(O)c(O)c2)oc2cc(O)cc(O)c12` [Luteolin (Luteolol)], for which the relative viability in assay [1] (0.0001 µM) worked out at 108.1 ± 0.74%; in assay [1] (0.001 µM), 104 ± 2.9%; in assay [1] (0.01 µM), 104.7 ± 0.25%; in assay [1] (0.1 µM) it was 100 ± 3%; in assay [1] (1 µM) it was 105.3 ± 0.74%; in assay [1] (10 µM) it was 101.9 ± 0.18%. Also, the relative viability in assay [2] (0.0001 µM) was found to be 107.6 ± 0.4%; in assay [2] (0.001 µM) it was 103 ± 3.2%; in assay [2] (0.01 µM), 102 ± 1.6%; in assay [2] (0.1 µM), 100 ± 3.7%; in assay [2] (1 µM), 108 ± 4.5%; in assay [2] (10 µM) it was 92.4 ± 2%.

As to `N=C(N)NC(=N)NCCc1ccccc1` [Phenformin HCl], the relative viability in assay [1] (0.0001 µM) was determined as 114.3 ± 0.035%; in assay [1] (0.001 µM) it was 113.5 ± 0.44%; in assay [1] (0.01 µM) it was 113 ± 1.9%; in assay [1] (0.1 µM), 112 ± 1.7%; in assay [1] (1 µM) it was 110 ± 8%; in assay [1] (10 µM), 105.3 ± 0.58%. The relative viability in assay [2] (0.0001 µM) is 101 ± 5.7%; in assay [2] (0.001 µM) it was 102 ± 2.7%; in assay [2] (0.01 µM), 99.8 ± 1.6%; in assay [2] (0.1 µM), 104 ± 3.9%; in assay [2] (1 µM) it was 101 ± 5.7%; in assay [2] (10 µM), 101.9 ± 0.52%.

Regarding `CC(C)(C)OC(=O)N[C@H]1CCCCC/C=C\[C@@H]2C[C@@]2(C(=O)NS(=O)(=O)C2CC2)NC(=O)[C@@H]2C[C@@H](OC(=O)N3Cc4cccc(F)c4C3)CN2C1=O` [Danoprevir], the relative viability in assay [1] (0.0001 µM) stood at 105 ± 3.4%; in assay [1] (0.001 µM), 111 ± 3.4%; in assay [1] (0.01 µM), 113 ± 1.2%; in assay [1] (0.1 µM), 114 ± 3.5%; in assay [1] (1 µM), 97.9 ± 4.1%; in assay [1] (10 µM), 105.7 ± 0.94%. Also, the relative viability worked out at 100.3 ± 0.43% in assay [2] (0.0001 µM); 104.2 ± 0.88% in assay [2] (0.001 µM); 101 ± 3.4% in assay [2] (0.01 µM); 101.8 ± 0.53% in assay [2] (0.1 µM); 98.14 ± 0.84% in assay [2] (1 µM); 99.4 ± 1.5% in assay [2] (10 µM).

Take `Cc1ccc(Nc2nccc(N(C)c3ccc4c(C)n(C)nc4c3)n2)cc1S(N)(=O)=O` [Pazopanib Hydrochloride]: the relative viability in assay [1] (0.0001 µM) came to 78.9 ± 0.89%; in assay [1] (0.001 µM), 104 ± 5.5%; in assay [1] (0.01 µM), 110 ± 5.6%; in assay [1] (0.1 µM), 114.4 ± 0.52%; in assay [1] (1 µM), 104.7 ± 0.87%; in assay [1] (10 µM), 82.2 ± 1.6%. The relative viability in assay [2] (0.0001 µM) came to 92.7 ± 4.2%; in assay [2] (0.001 µM), 99.2 ± 3.9%; in assay [2] (0.01 µM), 102 ± 1.2%; in assay [2] (0.1 µM), 102.1 ± 1%; in assay [2] (1 µM), 100.8 ± 0.29%; in assay [2] (10 µM), 55.9 ± 1.2%.

For the compound `O=C1NC(=O)/C(=C/c2ccc(-c3ccc(F)cc3O)o2)S1`, the relative viability was 111 ± 2.5% in assay [1] (0.0001 µM); 109 ± 2.8% in assay [1] (0.001 µM); 102 ± 1.2% in assay [1] (0.01 µM); 96.7 ± 3.6% in assay [1] (0.1 µM); 106 ± 2.1% in assay [1] (1 µM); 90.8 ± 2.4% in assay [1] (10 µM). For the same compound, the relative viability is 92.9 ± 9.3% in assay [2] (0.0001 µM); 95.3 ± 2.2% in assay [2] (0.001 µM); 96.95 ± 0.74% in assay [2] (0.01 µM); 101 ± 5.6% in assay [2] (0.1 µM); 88.2 ± 2% in assay [2] (1 µM); 108 ± 3.4% in assay [2] (10 µM).
